Test results taken from article PMC12656565, “In Vitro and Ultrastructural Evaluation of the Cytotoxic and Antileishmanial Activities of Thiosemicarbazone Compounds Against Promastigotes and Axenic Amastigotes of Leishmania infantum” (Tropical Medicine and Infectious Disease, 2025).
Peptide text beside a SMILES is read from it. * marks the point of attachment. Cbz = O=C(OCc1ccccc1)*

Tests used:
[1] = test system: L. infantum promastigote cells; assay: Mitochondrial membrane potential (Rhodamine 123, flow cytometry); format: cell-based, Leishmania infantum
Protocol: To evaluate the effects of compounds on the mitochondrial membrane potential (ΔΨm) of Leishmania infantum, the cationic probe Rhodamine 123 (Rod 123) was used through quantitative flow cytometry analysis. […] After incubation, cells were centrifuged at 3000× g for 5 min, and supernatants discarded. […] Hydrogen peroxide (H2O2) at 1 μM was used as positive control, previously described in the literature as an inducer of mitochondrial potential loss. Cells were analyzed by flow cytometry on the FACSCalibur equipment (Becton & Dickinson, San José, CA, USA), with excitation at 488 nm and detection at 505/534 nm. Fifty thousand events per sample were acquired. Data were expressed as percentage of cells stained with Rhodamine 123 for each tested condition. Fluorescence variation was quantified by Variation Index (VI), calculated by the equation: VI = (MT − MC)/MC, where MT corresponds to the median fluorescence of treated cells and MC to the median of control cells (untreated).

[2] = test system: Leishmania infantum promastigote forms (MHOM/BR/BH46); assay: In vitro leishmanicidal activity against promastigotes (Neubauer chamber counting); format: cell-based; details: for IC50 / inhibition at 20 µM: Leishmania infantum; for IC50: 72 h, L. infantum promastigotes, linear regression; for inhibition at 20 µM: lowest concentration tested in the promastigote series (20–400 µM)
Protocol: For this study, the Leishmania infantum strain MHOM/BR/BH46 was used. It was maintained by cryopreservation in liquid nitrogen, using a preservation solution containing 10% dimethyl sulfoxide (DMSO) and 90% fetal bovine serum (FBS). For the experiments, the strain was reactivated and maintained in continuous culture in modified Schneider’s Drosophila medium, supplemented with 10% heat-inactivated fetal bovine serum (FBS), at a temperature of 26 °C, with subcultures performed every 72 h. The promastigote form was used for the in vitro assays, with growth observed and monitored through parasite counting using a Neubauer chamber (iNCYTO CChip DHC-N01, Cheonan-Si, Republic of Korea).
The in vitro leishmanicidal activity of compounds LT-70, LT-73, LT-75, LT-89, and amphotericin B was determined as described by Aliança et al., with adaptations. Promastigote forms of L. infantum (MHOM/BR/BH46) were maintained in Schneider’s medium supplemented with 10% fetal bovine serum (FBS), incubated at 26 °C. For experiments, parasites were subcultured and grown for 72 h until reaching stationary phase. Subsequently, they were adjusted to a concentration of 1 × 10^6 parasites/mL. Cultures were then incubated in the presence of the tested compounds (20–400 µM) and Amphotericin B was tested from 0.01 to 1.0 µM in preliminary range-finding assays, confirming an IC50 of 0.04 µM, both prepared in DMSO (final DMSO concentration < 1%), as well as a control containing only the diluent. Analyses were performed in technical triplicate and biological duplicate. Cultures were maintained at 26 °C for 72 h, with daily parasite counts performed using a Neubauer chamber. The median inhibitory concentration (IC50) was determined after 72 h by linear regression using SPSS 25.0 software for Mac. All assays were performed in 24-well flat-bottom plates (2 mL final volume per well), with parasite inoculum verified by Neubauer counting chamber. The compounds LT-73 and LT-75 were selected based on their best leishmanicidal performance and respective selectivity index (SI), calculated as the ratio between the cytotoxic concentration for 50% of host cells (CC50) and the IC50 obtained for parasites. […] IC50 and CC50 values were obtained by linear regression using […]. This method has been validated in our previous thiosemicarbazone publications. Each assay was conducted in triplicate across two independent biological experiments performed on separate days to ensure reproducibility and minimize batch effects. MTT was selected for consistency with the validated thiosemicarbazone protocol by Jacob et al., ensuring methodological coherence with prior data.

J774.A1 macrophages = test system: J774.A1 macrophages; set-up: method as in PMID 33590474; details: highest concentration tested 75 µM, previously determined in collaboration with Jacob et al., ref [20]; cited from earlier work
[3] = test system: axenic amastigote forms of Leishmania amazonensis; set-up: method as in ref [22] Oliveira et al.; details: ref [22] Oliveira et al.; cited from earlier work
Leishmania infantum = test system: Leishmania infantum; set-up: method as in PMID 35861942, PMID 14982775; details: against Leishmania infantum, similar in vitro conditions; ref [25],[29]; cited from earlier work

Row | Compound | IC50 [2] [µM] | inhibition at 20 µM [2] [%] | CC50 (J774.A1 macrophages) [µM] | further results
1 | OO [Hydrogen Peroxide (H2O2), Hydrogen peroxide, reference compound] |  |  |  | Mean (Rho 123 fluorescence) ([1]; positive control, H2O2 at 1 μM): 581 ± 35; Variation (Variation Index, VI = (MT − MC)/MC) ([1]; positive control, H2O2 at 1 μM): −0.18 ± 0.08; Variability Index (VI), range ([1]; range over the tested concentrations (1× and 2× IC50; H2O2 control)): −0.018 to −0.73
2 | N#Cc1ccc2[nH]cc(/C=N/NC(=S)Nc3ccccc3)c2c1 [LT-70] | < 20 | 100 | 64 ± 5 | 
3 | C=CCNC(=S)N/N=C\c1c[nH]c2c(C)cccc12 [LT-89] | < 20 | 100 | 60 ± 4 | SI (CC50/IC50) ([2]; CC50 J774 macrophages / IC50 promastigotes): 4.3
4 | CC(C)[C@H](NC(=O)OCc1ccccc1)C(=O)N[C@H](C=O)Cc1ccccc1 [MDL28170] (Cbz-Val-Phe-aldehyde) |  |  |  | IC50 [3]: 13.5 µM
5 | CCCCCCCCCCCCCCCCOP(=O)([O-])OCC[N+](C)(C)C [miltefosine] |  |  |  | IC50 (Leishmania infantum): 8 to 12 µM
